According to ChEMBL document CHEMBL4385648 (Bioorg Med Chem, 2019):

Assays:
[1] = Inhibition of Influenza A virus (A/Babol/36/2005 (H3N2) neuraminidase expressed by HEK293 cells incubated for 1 hr using 4-MU-NANA substrate by spectrofluorometric assay; format: cell-based
Neuraminidase = Neuraminidase (Influenza A virus, UniProt B4URF0); assay: Inhibition of Influenza A virus (A/Anhui/1/2013 (H7N9) neuraminidase expressed by HEK293 cells incubated for 1 hr using 4-MU-NANA substrate by spectrofluorometric assay; format: cell-based

Row | SMILES | IC50 ([1]; read-out: IC50) [µM] | IC50 (Neuraminidase; hek293) | IC50 [1] | IC50 (Neuraminidase; read-out: IC50) [µM]
1 | CCOC(=O)C1=C[C@@H](OC(CC)CC)[C@H](NC(C)=O)[C@@H](N)C1 [OSELTAMIVIR] | 0.1 |  |  | 
2 | CC(=O)C1=C(O)C(C)(C)C(O)=C(CC2=C(O)C(C)(C)C(O)=C(C(C)=O)C2=O)C1=O |  | Not Active | Not Active | 
3 | CCCC(=O)c1c(O)c(C=O)c(O)c(Cc2c(O)c(C=O)c(O)c(C(=O)CCC)c2O)c1O | 9.8 |  |  | 2.5
4 | CCCC(=O)c1c(O)c(CC2=C(O)C(C)(C)C(O)=C(C(C)=O)C2=O)c(O)c(Cc2c(O)c(CC3=C(O)C(C)(C)C(O)=C(C(C)=O)C3=O)c(O)c(C(=O)CCC)c2O)c1O | 36.1 |  |  | 3.6
5 | CCCC(=O)c1c(O)cc(O)c(CC2=C(O)C(C)(C)C(O)=C(C(C)=O)C2=O)c1O | 5.6 |  |  | 1.6
